Assay results: patent publication US12448388B2, “PRMT5 inhibitors and uses thereof” (Gilead Sciences, Inc., priority 2023, dated 2025)
Like-named read-outs stand apart in the source and are kept apart here.

What was measured:
[1] = system: HCT116 MTAP-deleted cell lines; test: Cell viability assay (CellTiter-Glo, 7 days), HCT116 MTAP-deleted; assay type: cell-based; conditions: Homo sapiens, HCT-116, HCT116 MTAP-deleted, class symbols, read-out: CC50
In short: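 HCT116 MTAP-deleted and wild-type cells exposed to serially diluted compound for 7 days at 37 °C, 5% CO2. Viability read by CellTiter-Glo luminescence; CC50 derived per line, with selectivity comparing WT to MTAP-deleted, limited solubility can inflate values marked *.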

[2] = system: Symmetric Di-methyl Arginine (SDMA) signal (PRMT5 inhibition) in HCT116 MTAP-deleted cells; test: Symmetric di-methyl arginine image-based high content screen assay (SDMA assay), HCT116 MTAP-deleted; assay type: cell-based; conditions: for EC50: Homo sapiens, HCT-116, HCT116 MTAP-deleted, class symbols
Experimental: Symmetric di-methyl arginine image-based high content screen assay (SDMA assay) was performed in HCT116 WT and HCT116 MTAP-deleted cell lines to measure Symmetric Di-methyl Arginine (SDMA) signal reduction after selective PRMT5 inhibition in the MTAP-deleted cells. Control compounds were analyzed in parallel each time for quality control.
Briefly, the same compound plates were generated as mentioned in the previous section of Cell viability assay on Day −1. On Day 0, 800 HCT WT or HCT116 MTAP-deleted cell were seeded in compound-containing 384 well plates (50 μl per well) in RPMI 1640 media supplemented with 10% heat inactivated fetal bovine serum, Glutamax and penicillin streptomycin using EL460 liquid dispenser 5 μl cassette (BioTek, part no. 7170011). After equilibrating the plate at room temperature, the cells were incubated for 3 days inside the sealed incubator set at 37° C. with 90% humidity and 5% C02.
On Day 3, the cells were fixed by adding 45 μl of 8% neutralized formalin solution to each well using EL460 liquid dispenser 5 μl cassette and the cells were incubated for 30 minutes at room temperature. The formalin solution was washed off with […] phosphate buffered saline (dPBS), the 0.1% Triton X-100 solution in dPBS was used to permeabilize the cells for 15 minutes at room temperature. The triton solution was aspirated, 50 μl of Odyssey Blocking buffer +0.05% Tween20 was added and the plate was incubated at room temperature for 30 minutes.
The blocking solution was removed, a 20 μl of SDMA antibody (Cell Signaling Technology, Cat no. 13222) diluted 1:500 in Odyssey Blocking buffer +0.05% Tween20 was added and the plate was incubated at 4° C. overnight. Next day, the primary SDME antibody solution was washed from each well three times with 0.05% Tween20 in dPBS (PBST).
A 30 μl of the secondary antibody, a Goat anti-Rabbit Alexa Fluor Plus 488 (Invitrogen, Cat no. PIA32731) was diluted 1:500 in Odyssey Blocking buffer +0.05% Tween20 and the plate was incubated for 1.5 hours in dark at room temperature. The secondary antibody solution was removed, 30 μl of 5 mg/ml DAPI solution diluted 1:2000 in dPBS was added and the plate was incubated for 30 minutes in dark at room temperature. The DAPI solution was aspirated and the wells were washed six times with dPBS.
The SDMA signal and DAPI signal per cell were counted using a Cellomics CX7 LZR instrument reading under 488 and 405 nm laser, respectively. The SDMA signal was quantified by mean average intensity per cell from Alexa Fluor Plus 488 after the cell was defined with DAPI. The EC50 values for each compound after 3 days of treatment were calculated using 4 parameter non-linear logistical curve fit.
For the SDMA assay i.e. EC50 shown in Table 3A: A: EC50≤1 nM, B: 1 nM<EC50≤5 nM, C: EC50>5 nM.

[3] = HCT116 WT versus HCT116 MTAP-deleted
[4] = HCT116 WT vs HCT116 MTAP-deleted

Row | Structure (SMILES) | CC50 ([1]; cell viability) | EC50 selectivity [2, 3] | EC50 [2] | CC50 ([1]; cell viability assay) | EC50 selectivity [2, 4]
1 | CC(=O)N(C)N(Cc1ccc(Cl)cc1C#N)C(=O)c1ccc2nc(N)c3c(C)ncn3c2c1 [Fa-6, N′-acetyl-4-amino-N-(4-chloro-2-cyanobenzyl)-N′,3-dimethylimidazo[1,5-a]quinoxaline-8-carbohydrazide] | < 100 nM | 129 | 1 to 5 nM |  | 
2 | Cc1cc2nc(N)c3cncn3c2cc1C(=O)N(C)[C@@H]1COc2cc(C(F)(F)F)ccc21 [Ff-674, (S)-4-amino-N,7-dimethyl-N-(6-(trifluoromethyl)-2,3-dihydrobenzofuran-3-yl)imidazo[1,5-a]quinoxaline-8-carboxamide] |  |  | ≤ 1 nM | < 100 nM | 85
3 | Cc1ncn2c1c(N)nc1cc(F)c(C(=O)N3CCC[C@@H]4Oc5cc(C(F)(F)C(F)(F)F)ncc5[C@@H]43)cc12 [Fg-41, (4-amino-7-fluoro-3-methylimidazo[1,5-a]quinoxalin-8-yl)((4aS,9bS)-7-(perfluoroethyl)-3,4,4a,9b-tetrahydrofuro[3,2-b:4,5-c′]dipyridin-1(2H)-yl)methanone] |  |  | 1 to 5 nM | < 100 nM | 42
4 | CN(C(=O)c1cc2c(cc1F)nc(N)c1cncn12)[C@@H]1COc2cc(-c3cnn(C(F)F)c3)ccc21 [Ff-213, (S)-4-amino-N-(6-(1-(difluoromethyl)-1H-pyrazol-4-yl)-2,3-dihydrobenzofuran-3-yl)-7-fluoro-N-methylimidazo[1,5-a]quinoxaline-8-carboxamide] | < 100 nM | 153 | 1 to 5 nM |  | 
5 | [2H]C1([2H])CC[C@@H]2Oc3cc(OC(F)(F)F)ccc3[C@@H]2N1C(=O)c1cc2c(cn1)nc(N)c1cncn12 [Fg-59, (4-aminoimidazo[1,5-a]pyrido[3,4-e]pyrazin-8-yl)((4aS,9bS)-7-(trifluoromethoxy)-3,4,4a,9b-tetrahydrobenzofuro[3,2-b]pyridin-1(2H)-yl-2,2-d2)methanone] |  |  | ≤ 1 nM | < 100 nM | 208
6 | Cc1cn(-c2ccc3c(c2)OC[C@H]3N(C)C(=O)c2cc3c(cc2F)nc(N)c2cncn23)cn1 [Ff-544, (S)-4-amino-7-fluoro-N-methyl-N-(6-(4-methyl-1H-imidazol-1-yl)-2,3-dihydrobenzofuran-3-yl)imidazo[1,5-a]quinoxaline-8-carboxamide] |  |  | 1 to 5 nM | < 100 nM | 109
7 | Cc1ncc2c(N)nc3ccc(C(=O)N4CCC5(CC4)CC(=O)c4ccccc4O5)cc3n12 [Ff-60, 1′-(4-amino-1-methylimidazo[1,5-a]quinoxaline-8-carbonyl)spiro[chromane-2,4′-piperidin]-4-one] | 100 to 1000 nM | 371 | > 5 nM |  | 
8 | Cc1ncc2c3cc(C(=O)N(Cc4ccc(C(F)(F)F)cn4)[C@H](C)c4ncccn4)ccc3nc(N)n12 [Fg-5, (R)-5-amino-3-methyl-N-(1-(pyrimidin-2-yl)ethyl)-N-((5-(trifluoromethyl)pyridin-2-yl)methyl)imidazo[1,5-c]quinazoline-9-carboxamide] |  |  | 1 to 5 nM | < 100 nM | 19
9 | CN(C(=O)c1ccc2nc(N)c3cncn3c2c1)[C@@H]1COc2cc(C34CC(C(F)F)(C3)C4)ccc21 [Ff-641, (S)-4-amino-N-(6-(3-(difluoromethyl)bicyclo[1.1.1]pentan-1-yl)-2,3-dihydrobenzofuran-3-yl)-N-methylimidazo[1,5-a]quinoxaline-8-carboxamide] |  |  | ≤ 1 nM | < 100 nM | 389
10 | [2H]C1([2H])C[C@H]2C[C@H](c3ccc(C(F)(F)F)cc3O2)N1C(=O)c1cc2c(cc1F)nc(N)c1cncn12 [Ff-637, (4-amino-7-fluoroimidazo[1,5-a]quinoxalin-8-yl)((2S,6R)-9-(trifluoromethyl)-3,4-dihydro-2H-2,6-methanobenzo[b][1,5]oxazocin-5(6H)-yl-4,4-d2)methanone] |  |  | ≤ 1 nM | < 100 nM | 182
11 | Cc1ncc2c(N)nc3ccc(C(=O)N4CCC[C@@H]5Oc6cc(OC(F)(F)F)ccc6[C@@H]54)cc3n12 [Ff-640, (4-amino-1-methylimidazo[1,5-a]quinoxalin-8-yl)((4aS,9bS)-7-(trifluoromethoxy)-3,4,4a,9b-tetrahydrobenzofuro[3,2-b]pyridin-1(2H)-yl)methanone] |  |  | 1 to 5 nM | < 100 nM | 415
12 | Cc1ncc2c(N)nc3cnc(C(=O)N4C[C@H](F)C[C@@H]5Oc6cc(C(F)(F)F)ccc6[C@@H]54)cc3n12 (racemic) [Ff-682, Rac-(4-amino-1-methylimidazo[1,5-a]pyrido[3,4-e]pyrazin-8-yl)((3R,4aS,9bS)-3-fluoro-7-(trifluoromethyl)-3,4,4a,9b-tetrahydrobenzofuro[3,2-b]pyridin-1(2H)-yl)methanone] |  |  | 1 to 5 nM | < 100 nM | 128
13 | Nc1nc2ccc(C(=O)N(Cc3cc4ccccn4n3)C34CC(C3)C4)cc2c2cncn12 [Fg-16, 5-amino-N-(bicyclo[1.1.1]pentan-1-yl)-N-(pyrazolo[1,5-a]pyridin-2-ylmethyl)imidazo[1,5-c]quinazoline-9-carboxamide] |  |  | > 5 nM | > 1000 nM | 6
14 | Cc1ncn2c1c(N)nc1ccc(C(=O)N3C[C@@H](C)O[C@@H]4Cc5cc(C(F)(F)F)ccc5[C@@H]43)cc12 [Fg-35, (4-amino-3-methylimidazo[1,5-a]quinoxalin-8-yl)((2R,4aS,9aR)-2-methyl-7-(trifluoromethyl)-2,3,9,9a-tetrahydroindeno[2,1-b][1,4]oxazin-4(4aH)-yl)methanone] |  |  | 1 to 5 nM | < 100 nM | 151
15 | CN(C(=O)c1cc2c(cc1F)nc(N)c1cncn12)C1CCc2cc(C(F)(F)F)ccc21 (stereo not drawn) [Ff-309, 4-amino-7-fluoro-N-methyl-N-(5-(trifluoromethyl)-2,3-dihydro-1H-inden-1-yl)imidazo[1,5-a]quinoxaline-8-carboxamide] | < 100 nM |  |  |  | 
16 | Nc1nc2cc(F)c(C(=O)N3CCC(F)(F)C[C@@H]3c3ccc(OC(F)(F)F)cc3)cc2n2cncc12 [Ff-403, (R)-(4-amino-7-fluoroimidazo[1,5-a]quinoxalin-8-yl)(4,4-difluoro-2-(4-(trifluoromethoxy)phenyl)piperidin-1-yl)methanone] |  |  |  | 100 to 1000 nM | 
17 | Nc1nc2cc(F)c(C(=O)N3CC(F)(F)CC[C@@H]3c3ccc(C(F)(F)F)cn3)cc2n2cncc12 (single isomer, unassigned) [Ff-242] | < 100 nM |  |  |  | 
18 | CC1(C)CN(C(=O)c2cc3c(cc2F)nc(N)c2cncn23)C(c2ccc(C(F)(F)F)cn2)CO1 (stereo not drawn) [Ff-513, (4-amino-7-fluoroimidazo[1,5-a]quinoxalin-8-yl)(2,2-dimethyl-5-(5-(trifluoromethyl)pyridin-2-yl)morpholino)methanone] |  |  |  | < 100 nM | 
19 | CN(C(=O)c1cc2c(cc1F)nc(N)c1cncn12)[C@@H]1COc2cc(C(F)(F)F)c(F)cc21 [Ff-503, (S)-4-amino-7-fluoro-N-(5-fluoro-6-(trifluoromethyl)-2,3-dihydrobenzofuran-3-yl)-N-methylimidazo[1,5-a]quinoxaline-8-carboxamide] |  |  |  | < 100 nM | 
20 | CN(C(=O)c1cc2c(cn1)nc(N)c1cncn12)[C@@H]1COc2cc(C34CC(C(F)F)(C3)C4)ccc21 [Ff-451, (S)-4-amino-N-(6-(3-(difluoromethyl)bicyclo[1.1.1]pentan-1-yl)-2,3-dihydrobenzofuran-3-yl)-N-methylimidazo[1,5-a]pyrido[3,4-e]pyrazine-8-carboxamide] |  |  |  | < 100 nM | 
